Converted amounts (≈) assume the structure as drawn.

Our source for the MIC, Activity and IC50 values is ChEMBL document CHEMBL5113553, “Synthesis and Bioactivity of Thiocarboxylic A and Derivatives” (J Nat Prod, 2022).

The test system of one data set is Staphylococcus aureus. Description: Antibacterial activity against wild type Staphylococcus aureus USA300 incubated for 24 hrs. The class given is functional.
In data set [1] the test system is Escherichia coli. The data set can be described thus: Antibacterial activity against wild type Escherichia coli incubated for 24 hrs. The format is functional.
In the next data set the test system is L929. Description: Cytotoxicity against mouse L929 cells upto 100 uM measured after 72 hrs by alamar blue assay. The class given is toxicity, cell-based. To be noted: l929, 72 h.
Data set [2] concerns Escherichia coli. Description: Antibacterial activity against Escherichia coli harboring delta tolC mutant assessed as inhibition of bacterial growth incubated for 24 hrs. The format is functional, organism-based.
Another data set relates to Candida albicans. The data set can be described thus: Antifungal activity against Candida albicans assessed as fungal growth inhibition. The class given is functional.

As for `CCCC/C=C/C=C/[C@@]1(C)OC(c2ccsc2C)=C(C(=O)OC)C1=O`, the MIC with Staphylococcus aureus and against Escherichia coli [1] was > 100 µM throughout. The Activity result in the data set on L929 is given as “Non-Toxic”.
Regarding `CC/C=C/C=C/[C@@]1(C)OC(c2sccc2C)=C(C(=O)OC)C1=O`, the MIC against Staphylococcus aureus and in the data set on Escherichia coli [1] was > 100 µM throughout. In addition, in the data set on L929, the Activity entry is on record as “Non-Toxic”.
Regarding `CC/C=C/C=C/[C@@]1(C)OC(c2ccsc2C)=C(C(=O)OC)C1=O`, the IC50 in the data set with Escherichia coli [2] stood at 44 µM. For the same compound, the minimal inhibitory concentration (MIC) in the data set on Candida albicans worked out at 1.7 mg/L (≈ 5.11 µM); in the data set on Staphylococcus aureus, 1.7 mg/L; in the data set with Escherichia coli [1] it was 1.7 mg/L. In addition, the Activity result in the data set with L929 was “Non-Toxic”.
For `CC/C=C/C=C/[C@@]1(C)OC(c2ccc(C)s2)=C(C(=O)OC)C1=O`, the MIC against Staphylococcus aureus and in the data set on Escherichia coli [1] was > 100 µM each time. For the same compound, the Activity entry in the data set with L929 is “Non-Toxic”.
